Patent publication US20230142592A1, “AROMATIC COMPOUND, ORGANIC SEMICONDUCTOR LAYER AND ORGANIC THIN FILM TRANSISTOR” (TOSOH CORPORATION, priority 2020, published 2023)

How the values were obtained:
[1] = Solution for forming organic semiconductor layer: kept in solution state in toluene at 25° C.; format: physicochemical; conditions: heated to 50° C. to dissolve, allowed to cool at room temperature (25° C.)
Procedure: In the air, in a 10 mL sample tube, 0.87 mg of 2,7-di(2-phenylethyl)dithienobiphenylene (Compound 1) synthesized in Example 1 and 434 mg of toluene (FUJIFILM Wako Pure Chemical Corporation, pure grade) was added and the resultant was heated to 50° C. to dissolve, and then allowed to cool at room temperature (25° C.) to thereby prepare a solution for forming an organic semiconductor layer.
The solution for forming an organic semiconductor layer was kept in a solution state after 10 hours at 25° C. (concentration of Compound 1: 0.20% by weight), confirming that this was a compound suitable for film formation by drop casting and inkjet.

[2] = Bottom gate-bottom contact p-type organic thin film transistor, transfer characteristics; conditions: toluene solution, annealed at 130° C. for 10 min
Procedure: (§1) Furthermore, this organic thin film transistor was annealed at 130° C. for 10 min and then measured for an electric physical property.

[3] = Solution for forming organic semiconductor layer: kept in solution state in toluene at 25° C.; format: physicochemical; conditions: .44 mg in 434 mg of toluene; heated to 50° C., allowed to cool at 25° C.
[4] = generally; cited from earlier work
[5] = Top gate-bottom contact p-type organic thin film transistor, transfer characteristics; conditions: annealed at 130° C. for 10 min
Procedure: The solution for forming an organic semiconductor layer obtained in Example 2 was used to produce a top gate-bottom contact p-type organic thin film transistor.
as §1

Row | Compound | concentration of solution kept in a solution state after 10 hours at 25° C. [1] [% by weight] | further results
1 | 2,7-di(2-(4-butylphenyl)ethyl)dithienobiphenylene [Compound 5] | 0.40 | 
2 | 2,7-di(2-(4-heptylphenyl)ethyl)dithienobiphenylene [Compound 6] | 0.20 | 
3 | 2,7-di(2-(4-propylphenyl)ethyl)dithienobiphenylene [Compound 4] | 0.10 | 
4 | CCCCCCCCc1ccc2c(c1)sc1c3ccc(CCCCCCCC)cc3sc21 [2,7-dioctyl[1]benzothieno[3,2-b][1]benzothiophene, reference compound] | 0.20 | degradation in performance due to heat treatment [2]: transistor operation was not achieved
5 | c1ccc(-c2ccc3c(c2)sc2c4ccc(-c5ccccc5)cc4sc32)cc1 [2,7-diphenyl[1]benzothieno[3,2-b][1]benzothiophene] |  | solution state after cooling to room temperature (solubility) [3]: a solid was deposited; solubility in an organic solvent [4]: almost insoluble
6 | CCCCCCCCc1cc2ccc3cc4c(ccc5cc(CCCCCCCC)sc54)cc3c2s1 [2,8-dioctylanthra[1,2-b:5,6-b′]dithiophene, reference compound] | 0.20 | 
7 | c1ccc(CCc2cc3ccc4c(c3s2)-c2ccc3cc(CCc5ccccc5)sc3c2-4)cc1 [Compound 1, 2,7-di(2-phenylethyl)dithienobiphenylene] | 0.20 | degradation in performance due to heat treatment [5]: almost no degradation in performance; melting point: 195 °C; degradation in performance due to heat treatment [2]: almost no degradation in performance
8 | c1ccc(CCc2cc3ccc4cc5c(ccc6cc(CCc7ccccc7)sc65)cc4c3s2)cc1 [Compound 10, 2,8-di(2-phenylethyl)anthra[1,2-b:5,6-b′]dithiophene] | 0.20 | 
9 | c1ccc(CCc2cc3ccc4c(c3s2)-c2ccc3ccsc3c2-4)cc1 [Compound 13, 2-(2-phenylethyl)dithienobiphenylene] | 1.00 | melting point: 161 °C
10 | Cc1ccc(CCc2cc3ccc4c(c3s2)-c2ccc3ccsc3c2-4)cc1 [Compound 14, 2-(2-(4-methylphenyl)ethyl)dithienobiphenylene] | 1.00 | 
11 | c1ccc(CCc2cc3ccc4cc5c(ccc6ccsc65)cc4c3s2)cc1 [Compound 15, 2-(2-phenylethyl)anthra[1,2-b:5,6-b′]dithiophene] | 0.40 | 
12 | Cc1ccc(CCc2cc3ccc4cc5c(ccc6ccsc65)cc4c3s2)cc1 [Compound 16, 2-(2-(4-methylphenyl)ethyl)anthra[1,2-b:5,6-b′]dithiophene] | 0.50 | 
13 | CCCCc1ccc(CCc2cc3ccc4cc5c(ccc6ccsc65)cc4c3s2)cc1 [Compound 17, 2-(2-(4-n-butylphenyl)ethyl)anthra[1,2-b:5,6-b′]dithiophene] | 1.00 | degradation in performance due to heat treatment [2]: almost no degradation in performance
14 | CCCCCCCc1ccc(CCc2cc3ccc4cc5c(ccc6ccsc65)cc4c3s2)cc1 [Compound 18, 2-(2-(4-n-heptylphenyl)ethyl)anthra[1,2-b:5,6-b′]dithiophene] | 0.20 | 
15 | CCCOc1ccc(CCc2cc3ccc4cc5c(ccc6ccsc65)cc4c3s2)cc1 [Compound 23, 2-(2-(4-propoxyphenyl)ethyl)anthra[1,2-b:5,6-b′]dithiophene] | 1.00 | 
16 | COc1ccc(CCc2cc3ccc4cc5c(ccc6ccsc65)cc4c3s2)cc1 [Compound 24, 2-(2-(4-methoxyphenyl)ethyl)anthra[1,2-b:5,6-b′]dithiophene] | 0.10 | 
